Here are results for 26 substances from publication PMC11284792, “Backbone-Determined Antiarrhythmic Structure–Activity Relationships for a Mirror Image, Oligomeric Depsipeptide Natural Product” (Journal of Medicinal Chemistry, 2024).

Read-outs that look alike come from different tables or passages of the source.

Data set [1] has as its target T1, RyR2 (Mus musculus, UniProt E9Q401).
T1 construct: ventricular cardiomyocytes were isolated from C57Bl/6J mice, adhered to laminin-coated glass bottom culture dishes, permeabilized with saponin; endogenous in cells; host or cells: left ventricular cardiomyocytes freshly isolated from C57BL/6J mice, saponin-permeabilized
To be noted: 25 μM drug, normalized to vehicle (DMSO), mean ± standard deviation, ref Johnston et al. ACS Med. Chem. Lett., 2022, 13(11), 1755–1762, cited from earlier work; for Normalized Calcium Leak: CSV supplement, ent-verticilide and Series 1; for Calcium spark Amplitude (normalized to vehicle) / Calcium spark Leak (normalized to vehicle) / Calcium spark Mass (normalized to vehicle) / Calcium spark Frequency (normalized to vehicle): Supplement Table 1; for Calcium spark Amplitude (normalized to vehicle) / Calcium spark Leak (normalized to vehicle) / Calcium spark Mass (normalized to vehicle): permeabilized murine cardiomyocytes; for Calcium spark Frequency (normalized to vehicle): permeabilized murine left ventricular myocytes, 15 min incubation. How it is done:
Supplement jm4c00923_si_002.csv, table | column: Normalized Calcium Leak || page 10: Johnston et al. Supporting Information mouse variability provided by Sikkel et al.5 Bonferroni-adjusted P values are reported in the figure legends. A cutoff value of 0.05 was used as the threshold to reject the null hypothesis. Safety: No unexpected or unusually high safety hazards were encountered. Biological Experiment Data: Calcium spark parameters For all series, assay is run with 25 μM solution of drug. Values are normalized to the vehicle (DMSO) condition and reported as mean ± standard deviation. Statistical comparisons were made using a hierarchical clustering model with Bonf ...

For data set [2] the following is noted: amide bond, 24-membered ring, 3 steps.
Setting [3] is: the molecule shown is the open-chain precursor.
Where [4] appears, read: the molecule shown is the open-chain precursor, PyBOP.

T1 sequence (E9Q401 whole entry): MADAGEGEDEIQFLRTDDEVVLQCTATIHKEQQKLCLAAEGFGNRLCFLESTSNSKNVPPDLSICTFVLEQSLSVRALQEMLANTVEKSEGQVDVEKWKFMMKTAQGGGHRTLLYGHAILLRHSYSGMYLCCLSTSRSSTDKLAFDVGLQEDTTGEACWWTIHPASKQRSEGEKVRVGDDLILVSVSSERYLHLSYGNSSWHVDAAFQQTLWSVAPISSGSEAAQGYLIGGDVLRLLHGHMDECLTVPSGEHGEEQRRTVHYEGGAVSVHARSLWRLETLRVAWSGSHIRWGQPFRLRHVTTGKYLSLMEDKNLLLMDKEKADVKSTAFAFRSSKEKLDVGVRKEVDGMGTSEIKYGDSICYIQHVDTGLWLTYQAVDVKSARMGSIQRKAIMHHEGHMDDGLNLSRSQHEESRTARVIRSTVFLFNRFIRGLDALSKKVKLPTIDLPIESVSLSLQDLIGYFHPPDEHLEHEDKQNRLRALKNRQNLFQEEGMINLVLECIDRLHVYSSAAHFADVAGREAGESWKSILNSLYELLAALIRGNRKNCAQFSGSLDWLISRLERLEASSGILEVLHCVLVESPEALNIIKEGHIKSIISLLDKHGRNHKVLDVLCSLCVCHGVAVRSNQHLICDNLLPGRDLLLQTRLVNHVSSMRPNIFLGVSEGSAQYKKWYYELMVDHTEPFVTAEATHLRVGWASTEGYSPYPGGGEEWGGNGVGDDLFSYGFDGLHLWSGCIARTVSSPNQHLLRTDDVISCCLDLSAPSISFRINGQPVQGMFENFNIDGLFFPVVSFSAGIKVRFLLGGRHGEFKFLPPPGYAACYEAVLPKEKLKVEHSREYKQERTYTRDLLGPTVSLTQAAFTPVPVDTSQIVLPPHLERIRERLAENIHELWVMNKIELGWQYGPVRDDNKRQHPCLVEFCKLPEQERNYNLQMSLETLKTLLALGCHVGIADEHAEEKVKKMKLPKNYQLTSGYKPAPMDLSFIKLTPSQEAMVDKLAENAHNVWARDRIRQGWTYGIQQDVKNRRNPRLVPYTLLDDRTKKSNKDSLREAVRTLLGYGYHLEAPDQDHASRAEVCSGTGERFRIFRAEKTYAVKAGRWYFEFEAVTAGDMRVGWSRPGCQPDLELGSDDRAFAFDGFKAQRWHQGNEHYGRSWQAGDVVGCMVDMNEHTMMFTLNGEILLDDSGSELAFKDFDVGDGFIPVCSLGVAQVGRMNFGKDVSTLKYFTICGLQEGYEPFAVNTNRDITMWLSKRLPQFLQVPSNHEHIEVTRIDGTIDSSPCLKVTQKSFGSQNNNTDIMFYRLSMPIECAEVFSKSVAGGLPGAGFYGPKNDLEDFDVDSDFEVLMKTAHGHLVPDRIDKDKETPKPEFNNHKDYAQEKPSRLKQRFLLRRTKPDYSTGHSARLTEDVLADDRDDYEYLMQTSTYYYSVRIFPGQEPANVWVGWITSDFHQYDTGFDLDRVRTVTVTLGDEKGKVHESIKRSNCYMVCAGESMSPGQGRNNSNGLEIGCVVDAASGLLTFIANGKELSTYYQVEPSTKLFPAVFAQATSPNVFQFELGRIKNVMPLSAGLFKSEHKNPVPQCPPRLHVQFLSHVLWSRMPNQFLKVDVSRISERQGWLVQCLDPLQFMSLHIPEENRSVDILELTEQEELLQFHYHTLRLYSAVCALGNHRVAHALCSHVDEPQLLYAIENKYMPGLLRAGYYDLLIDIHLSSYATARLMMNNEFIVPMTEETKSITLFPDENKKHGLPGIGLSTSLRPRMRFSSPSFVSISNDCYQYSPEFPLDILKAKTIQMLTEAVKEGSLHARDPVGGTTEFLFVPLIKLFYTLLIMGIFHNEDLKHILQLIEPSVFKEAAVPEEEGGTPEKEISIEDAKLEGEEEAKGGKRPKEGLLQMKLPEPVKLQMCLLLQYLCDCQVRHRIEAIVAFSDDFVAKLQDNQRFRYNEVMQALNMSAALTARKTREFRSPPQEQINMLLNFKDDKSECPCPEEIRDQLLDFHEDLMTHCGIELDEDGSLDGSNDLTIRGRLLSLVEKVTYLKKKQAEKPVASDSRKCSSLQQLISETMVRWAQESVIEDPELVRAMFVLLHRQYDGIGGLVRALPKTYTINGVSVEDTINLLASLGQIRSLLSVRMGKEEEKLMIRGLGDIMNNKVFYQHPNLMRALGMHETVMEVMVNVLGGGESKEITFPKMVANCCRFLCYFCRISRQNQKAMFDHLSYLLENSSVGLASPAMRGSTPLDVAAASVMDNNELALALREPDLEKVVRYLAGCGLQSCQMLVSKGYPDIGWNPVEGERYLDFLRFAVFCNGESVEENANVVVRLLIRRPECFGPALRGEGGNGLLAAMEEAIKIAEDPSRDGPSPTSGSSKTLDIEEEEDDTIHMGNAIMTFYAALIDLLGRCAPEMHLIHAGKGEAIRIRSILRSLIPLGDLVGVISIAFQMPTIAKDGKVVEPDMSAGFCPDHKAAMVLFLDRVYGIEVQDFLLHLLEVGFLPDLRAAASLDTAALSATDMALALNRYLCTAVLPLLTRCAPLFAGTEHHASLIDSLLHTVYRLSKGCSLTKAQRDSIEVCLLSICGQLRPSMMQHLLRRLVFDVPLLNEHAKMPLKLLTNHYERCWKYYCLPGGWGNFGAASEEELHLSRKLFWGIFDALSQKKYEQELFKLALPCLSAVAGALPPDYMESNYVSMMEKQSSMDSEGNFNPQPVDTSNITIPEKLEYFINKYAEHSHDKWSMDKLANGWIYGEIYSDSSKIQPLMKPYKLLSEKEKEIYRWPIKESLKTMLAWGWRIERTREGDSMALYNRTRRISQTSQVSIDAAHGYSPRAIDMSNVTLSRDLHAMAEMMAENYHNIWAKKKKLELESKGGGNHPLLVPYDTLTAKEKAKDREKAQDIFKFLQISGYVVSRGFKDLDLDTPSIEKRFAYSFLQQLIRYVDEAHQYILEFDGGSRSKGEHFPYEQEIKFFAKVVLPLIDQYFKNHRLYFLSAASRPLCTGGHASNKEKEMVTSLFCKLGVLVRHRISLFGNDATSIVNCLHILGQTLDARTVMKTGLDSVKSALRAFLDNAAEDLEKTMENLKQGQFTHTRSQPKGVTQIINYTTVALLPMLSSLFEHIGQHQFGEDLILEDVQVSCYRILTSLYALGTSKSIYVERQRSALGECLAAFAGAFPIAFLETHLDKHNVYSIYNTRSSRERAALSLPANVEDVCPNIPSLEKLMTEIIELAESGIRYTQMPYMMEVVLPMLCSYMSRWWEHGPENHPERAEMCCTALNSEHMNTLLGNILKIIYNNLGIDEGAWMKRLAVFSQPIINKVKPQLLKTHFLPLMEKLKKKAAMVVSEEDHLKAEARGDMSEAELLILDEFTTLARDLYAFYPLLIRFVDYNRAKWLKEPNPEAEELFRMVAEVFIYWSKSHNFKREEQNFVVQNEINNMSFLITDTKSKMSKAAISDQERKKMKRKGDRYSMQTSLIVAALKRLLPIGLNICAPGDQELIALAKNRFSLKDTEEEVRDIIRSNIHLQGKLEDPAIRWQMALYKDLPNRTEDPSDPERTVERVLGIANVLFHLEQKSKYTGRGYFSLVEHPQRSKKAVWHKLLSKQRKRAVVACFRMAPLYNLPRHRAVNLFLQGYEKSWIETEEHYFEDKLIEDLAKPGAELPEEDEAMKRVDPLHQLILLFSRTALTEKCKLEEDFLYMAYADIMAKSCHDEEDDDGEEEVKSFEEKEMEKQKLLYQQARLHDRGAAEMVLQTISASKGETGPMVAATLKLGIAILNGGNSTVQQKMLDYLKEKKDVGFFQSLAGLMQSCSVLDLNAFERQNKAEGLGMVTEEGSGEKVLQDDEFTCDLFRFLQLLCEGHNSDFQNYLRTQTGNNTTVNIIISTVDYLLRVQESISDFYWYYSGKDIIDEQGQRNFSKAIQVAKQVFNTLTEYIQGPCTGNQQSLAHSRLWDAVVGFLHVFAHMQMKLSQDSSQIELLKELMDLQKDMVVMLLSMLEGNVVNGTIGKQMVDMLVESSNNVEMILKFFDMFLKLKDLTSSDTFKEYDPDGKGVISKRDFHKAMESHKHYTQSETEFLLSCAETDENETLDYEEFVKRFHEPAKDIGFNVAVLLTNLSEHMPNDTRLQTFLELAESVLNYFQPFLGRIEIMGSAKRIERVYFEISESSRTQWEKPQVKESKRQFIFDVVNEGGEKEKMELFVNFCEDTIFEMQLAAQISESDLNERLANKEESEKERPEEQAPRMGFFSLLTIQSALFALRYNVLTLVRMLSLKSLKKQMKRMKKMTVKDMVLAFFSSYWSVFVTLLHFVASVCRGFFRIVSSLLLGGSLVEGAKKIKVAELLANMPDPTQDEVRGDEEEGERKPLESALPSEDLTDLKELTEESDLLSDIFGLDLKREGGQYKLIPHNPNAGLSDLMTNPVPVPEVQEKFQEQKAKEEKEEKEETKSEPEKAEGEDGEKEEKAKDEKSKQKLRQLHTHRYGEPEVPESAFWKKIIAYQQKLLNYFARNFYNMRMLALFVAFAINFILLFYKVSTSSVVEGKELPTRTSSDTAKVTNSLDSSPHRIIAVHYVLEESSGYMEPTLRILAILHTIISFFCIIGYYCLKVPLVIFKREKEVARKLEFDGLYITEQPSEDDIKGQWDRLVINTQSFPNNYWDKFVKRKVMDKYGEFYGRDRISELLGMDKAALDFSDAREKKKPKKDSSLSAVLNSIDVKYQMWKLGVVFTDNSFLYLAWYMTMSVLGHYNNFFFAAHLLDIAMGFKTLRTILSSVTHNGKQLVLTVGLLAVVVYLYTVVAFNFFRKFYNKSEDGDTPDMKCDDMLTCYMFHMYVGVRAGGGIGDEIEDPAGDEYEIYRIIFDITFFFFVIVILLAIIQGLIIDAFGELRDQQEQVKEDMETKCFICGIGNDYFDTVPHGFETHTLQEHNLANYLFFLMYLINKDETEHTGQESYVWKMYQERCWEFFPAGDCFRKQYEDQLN

Take “(3R,6S,9R,12S,15R,18S,21R,24S)-3,4,9,15,16,21-hexamethyl-6,12,18,24-tetrapentyl-1,7,13,19-tetraoxa-4,10,16,22-tetraazacyclotetracosan-2,5,8,11,14,17,20,23-octaone [1.3]”: in data set [1], the “Normalized Calcium Leak” value is 0.90 ± 0.60, the “Calcium spark Amplitude (normalized to vehicle)” value is 1.04 ± 0.28, the “Calcium spark Leak (normalized to vehicle)” value is reported as 0.90 ± 0.60 and the “Calcium spark Mass (normalized to vehicle)” value is on record as 0.91 ± 0.48. Besides, in data set [1], the “Calcium spark Frequency (normalized to vehicle)” value is 0.96 ± 0.29.
“(3R,6S,9R,12S,15R,18S,21R,24S)-1,3,4,7,9,10,13,15,16,19,21,22-dodecamethyl-6,12,18,24-tetrapentyl-1,4,7,10,13,16,19,22-octaazacyclotetracosan-2,5,8,11,14,17,20,23-octaone”: the ring closure, yield after HPLC in data set [2] (PyBOP/DIPEA, DMF) was determined as 8%.
Turning to “H-dMeAla-MeAhp-dAla-MeAhp-dMeAla-MeAhp-dAla-MeAhp-OH”, in data set [2] (setting [3]), the ring closure, yield after HPLC was 7%.
“H-dMeAla-MeAhp-dMeAla-Ahp-dMeAla-Ahp-dMeAla-Ahp-OH”: the ring closure, yield after HPLC in data set [2] (setting [3]) worked out at 9%.
For the substance “H-dMeAla-MeAhp-dMeAla-Hhp-dMeAla-Hhp-dMeAla-Hhp-OH”, the ring closure, yield after HPLC in data set [2] (setting [3]) was 5%.
Still for that read-out and setting: the value for “H-dAla-MeAhp-dAla-MeAhp-dMeAla-MeAhp-dMeAla-MeAhp-OH?” was 8%; that for “H-dMeAla-Hhp-dMeAla-Hhp-dMeAla-Hhp-dMeAla-Ahp-OH” was 6%.
For “H-dMeAla-Hhp-dMeAla-Hhp-dMeAla-Ahp-dMeAla-Ahp-OH?”, the ring closure, yield after HPLC in data set [2] (setting [3]) was found to be 7%.
With “H-dAla-MeAhp-dAla-MeAhp-dAla-MeAhp-dAla-MeAhp-OH”, in data set [2] (setting [3]), the ring closure, yield after HPLC was 7%.
Same read-out and setting: the value for “H-dMeAla-Hhp-dMeAla-Hhp-dMeAla-MeAhp-dMeAla-MeAhp-OH” was 4%.
For the substance “H-dAla-Hhp-dAla-Hhp-dMeAla-Hhp-dMeAla-Hhp-OH?”, in data set [2] (setting [4]), the ring closure, yield after HPLC was 11%.
In data set [2] (setting [3]), “H-dMeAla-MeAhp-dMeAla-MeAhp-dMeAla-Ahp-dMeAla-Ahp-OH?” returned a ring closure, yield after HPLC of 6%.
For the substance “H-dMeAla-Hhp-dAla-Hhp-dAla-Hhp-dAla-Hhp-OH”, the ring closure, yield after HPLC in data set [2] (setting [3]) is 23%.
Regarding “H-dAla-Hhp-dAla-MeAhp-dAla-Hhp-dAla-MeAhp-OH?”, the ring closure, yield after HPLC in data set [2] (setting [3]) came to 6%.
Turning to “H-dMeAla-MeAhp-dMeAla-MeAhp-dMeAla-MeAhp-dMeAla-MeAhp-OH?”, in data set [2] (setting [3]), the ring closure, yield after HPLC stood at 8%.
Take “H-dMeAla-MeAhp-dMeAla-MeAhp-dMeAla-MeAhp-dMeAla-Hhp-OH?”: the ring closure, yield after HPLC in data set [2] (setting [3]) stood at 16%.
“(3R,6S,9R,12S,15R,18S,21R,24S)-1,3,4,7,9,10,13,15,16,19,21-undecamethyl-6,12,18,24-tetrapentyl-1,4,7,10,13,16,19,22-octaazacyclotetracosan-2,5,8,11,14,17,20,23-octaone” returned a ring closure, yield after HPLC in data set [2] (PyBOP/DIPEA, DMF, 4.6 mM) of 7.5%.
With “H-dAla-MeAhp-dMeAla-MeAhp-dMeAla-MeAhp-dMeAla-MeAhp-OH?”, the ring closure, yield after HPLC in data set [2] (setting [3]) amounted to 8%.
Same read-out and setting: the value for “H-dMeAla-MeAhp-dMeAla-Ahp-dMeAla-MeAhp-dMeAla-Ahp-OH” was 7%.
“(3R,6S,9R,12S,15R,18S,21R,24S)-3,4,9,15,21-pentamethyl-6,12,18,24-tetrapentyl-1,7,13,19-tetraoxa-4,10,16,22-tetraazacyclotetracosan-2,5,8,11,14,17,20,23-octaone [1.4]”: in data set [1], the “Normalized Calcium Leak” value was 0.77 ± 0.53, the “Calcium spark Amplitude (normalized to vehicle)” value is recorded as 0.93 ± 0.24, the “Calcium spark Leak (normalized to vehicle)” value is 0.77 ± 0.53 and the “Calcium spark Mass (normalized to vehicle)” value was 0.84 ± 0.32. The “Calcium spark Frequency (normalized to vehicle)” value in data set [1] is 0.90 ± 0.36.
As for “H-dMeAla-MeAhp-dMeAla-MeAhp-dMeAla-MeAhp-dMeAla-Ahp-OH?”, the ring closure, yield after HPLC in data set [2] (setting [3]) came out at 5%.
In turn, “(3R,6S,9R,12S,15R,18S,21R,24S)-3,4,9,10,15,16,19,21,22-nonamethyl-6,12,18,24-tetrapentyl-1,7,13-trioxa-4,10,16,19,22-pentaazacyclotetracosan-2,5,8,11,14,17,20,23-octaone” came in with a ring closure, yield after HPLC in data set [2] (PyBOP/DIPEA, DMF, 3.6 mM) of 5.1%.
“(3R,6S,9R,12S,15R,18S,21R,24S)-3,4,9,10,13,15,16,19,21,22-decamethyl-6,12,18,24-tetrapentyl-1,7-dioxa-4,10,13,16,19,22-hexaazacyclotetracosan-2,5,8,11,14,17,20,23-octaone” displayed a ring closure, yield after HPLC in data set [2] (PyBOP/DIPEA, DMF, 2.9 mM) of 4%.
As to “(3R,6S,9R,12S,15R,18S,21R,24S)-3,4,7,9,10,13,15,16,19,21,22-undecamethyl-6,12,18,24-tetrapentyl-1-oxa-4,7,10,13,16,19,22-heptaazacyclotetracosan-2,5,8,11,14,17,20,23-octaone”, in data set [2] (PyBOP/DIPEA, DMF, 5.0 mM), the ring closure, yield after HPLC is 16%.
As for “(3R,6S,9R,12S,15R,18S,21R,24S)-3,4,9,10,15,16,21-heptamethyl-6,12,18,24-tetrapentyl-1,7,13,19-tetraoxa-4,10,16,22-tetraazacyclotetracosan-2,5,8,11,14,17,20,23-octaone [1.1]”, in data set [1], the “Normalized Calcium Leak” value is 1.02 ± 0.71, the “Calcium spark Amplitude (normalized to vehicle)” value is on record as 1.01 ± 0.25, the “Calcium spark Leak (normalized to vehicle)” value is 1.02 ± 0.71 and the “Calcium spark Mass (normalized to vehicle)” value was 0.98 ± 0.59. Further, in data set [1], the “Calcium spark Frequency (normalized to vehicle)” value is listed as 1.03 ± 0.27.
“H-dAla-Hhp-dMeAla-Hhp-dMeAla-Hhp-dMeAla-Hhp-OH”: the ring closure, yield after HPLC in data set [2] (setting [4]) is 18%.
